For 8 molecules, IC50, efflux ratio and Papp results are on record in patent publication US20200216416A1, “QUINOLINE COMPOUNDS AS INHIBITORS OF TAM AND MET KINASES” (Array BioPharma Inc., priority 2019, published 2020).

For series [1], the target named is T1, MET (wt) GST-tagged recombinant human MET kinase domain (Homo sapiens, UniProt P08581).
T1 construct: GST-tagged recombinant human MET kinase domain; purchased Signal Chem
Description: c-Met Enzyme Assay, wild type (LanthaScreen Eu Kinase Binding). To be noted: averaged IC50; MET (wt) 10 nM; 60-minute incubation at 22° C.; read-out: SigChem WT IC50. As to the method: The affinity of compound binding to wild type and mutant human MET kinases was measured using Invitrogen's LanthaScreen™ Eu Kinase Binding technology. Briefly, GST-tagged recombinant human MET kinase domain from Signal Chem (see Table 8 below for concentration in assay) was incubated with 50 nM Alexa-Fluor® Tracer 236 (Invitrogen Cat No. PR9078A) and 2 nM Europium-anti-GST (Invitrogen Cat. No. A15116) along with test compound in a buffer consisting of 25 mM HEPES, pH 7.4, 10 mM MgCl2, 0.01% Triton X-100, 1mM DTT, and 2% DMSO. Compounds were typically prepared in a three-fold serial dilution in DMSO and added to the assay to give the appropriate final concentration. After a 60-minute incubation at 22° C., the reaction was measured using a PerkinElmer EnVision multimode plate reader via TR-FRET dual wavelength detection, and the percent of control (POC) calculated using a ratiometric emission factor. […] The POC values were fit to a 4 parameter logistic curve and the IC50 value is point where the curve crosses 50 POC.

For series [2], the target named is T2, His-tagged recombinant human AXL cytoplasmic domain (Homo sapiens, UniProt P30530).
T2 construct: His-tagged recombinant human AXL cytoplasmic domain
T2 sequence (P30530 473-894 limits assumed): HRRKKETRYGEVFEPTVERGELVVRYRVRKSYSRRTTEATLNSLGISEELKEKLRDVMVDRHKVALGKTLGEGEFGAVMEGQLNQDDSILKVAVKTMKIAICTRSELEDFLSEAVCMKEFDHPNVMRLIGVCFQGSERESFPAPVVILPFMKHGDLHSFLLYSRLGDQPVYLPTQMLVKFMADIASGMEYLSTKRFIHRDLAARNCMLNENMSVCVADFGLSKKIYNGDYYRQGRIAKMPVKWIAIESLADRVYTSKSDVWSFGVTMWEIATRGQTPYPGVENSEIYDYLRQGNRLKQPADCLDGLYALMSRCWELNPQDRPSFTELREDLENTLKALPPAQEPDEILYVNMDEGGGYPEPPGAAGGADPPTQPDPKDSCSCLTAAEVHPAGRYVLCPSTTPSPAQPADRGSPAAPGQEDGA
Put plainly: AXL Enzyme Assay (LanthaScreen Eu Kinase Binding). The conditions noted are these: averaged IC50; 60-minute incubation at 22° C.; TR-FRET. As to the method: Compounds disclosed herein were screened for their ability to inhibit AXL kinase using Invitrogen's LanthaScreen™Eu Kinase Binding technology. His-tagged recombinant human AXL cytoplasmic domain was incubated with 20 nM Alexa-Fluor® Tracer 236 (PR9078A), 2 nM biotinylated anti-His (Cat. No. M4408), and 2 nM europium-labeled Streptavidin (Cat. No. PV5899) along with test compound in a buffer consisting of 25 mM HEPES, pH 7.4, 10 mM MgCl2, 0.01% Triton X-100, and 2% DMSO. Compounds were typically prepared in a threefold serial dilution in DMSO and added to the assay to give the appropriate final concentration. After a 60-minute incubation at 22° C., the reaction was measured using a PerkinElmer EnVision multimode plate reader via TR-FRET dual wavelength detection, and the percent of control (POC) was calculated using a ratiometric emission factor. […] The POC values are fit to a 4 parameter logistic curve and the IC50 value is point where the curve crosses 50 POC.

The target of another series is T3, MDR1 (P-gp) (Homo sapiens, UniProt P08183).
T3 construct: expressed in transfected cells; host or cells: LLC-PK1
T3 sequence (P08183 whole entry): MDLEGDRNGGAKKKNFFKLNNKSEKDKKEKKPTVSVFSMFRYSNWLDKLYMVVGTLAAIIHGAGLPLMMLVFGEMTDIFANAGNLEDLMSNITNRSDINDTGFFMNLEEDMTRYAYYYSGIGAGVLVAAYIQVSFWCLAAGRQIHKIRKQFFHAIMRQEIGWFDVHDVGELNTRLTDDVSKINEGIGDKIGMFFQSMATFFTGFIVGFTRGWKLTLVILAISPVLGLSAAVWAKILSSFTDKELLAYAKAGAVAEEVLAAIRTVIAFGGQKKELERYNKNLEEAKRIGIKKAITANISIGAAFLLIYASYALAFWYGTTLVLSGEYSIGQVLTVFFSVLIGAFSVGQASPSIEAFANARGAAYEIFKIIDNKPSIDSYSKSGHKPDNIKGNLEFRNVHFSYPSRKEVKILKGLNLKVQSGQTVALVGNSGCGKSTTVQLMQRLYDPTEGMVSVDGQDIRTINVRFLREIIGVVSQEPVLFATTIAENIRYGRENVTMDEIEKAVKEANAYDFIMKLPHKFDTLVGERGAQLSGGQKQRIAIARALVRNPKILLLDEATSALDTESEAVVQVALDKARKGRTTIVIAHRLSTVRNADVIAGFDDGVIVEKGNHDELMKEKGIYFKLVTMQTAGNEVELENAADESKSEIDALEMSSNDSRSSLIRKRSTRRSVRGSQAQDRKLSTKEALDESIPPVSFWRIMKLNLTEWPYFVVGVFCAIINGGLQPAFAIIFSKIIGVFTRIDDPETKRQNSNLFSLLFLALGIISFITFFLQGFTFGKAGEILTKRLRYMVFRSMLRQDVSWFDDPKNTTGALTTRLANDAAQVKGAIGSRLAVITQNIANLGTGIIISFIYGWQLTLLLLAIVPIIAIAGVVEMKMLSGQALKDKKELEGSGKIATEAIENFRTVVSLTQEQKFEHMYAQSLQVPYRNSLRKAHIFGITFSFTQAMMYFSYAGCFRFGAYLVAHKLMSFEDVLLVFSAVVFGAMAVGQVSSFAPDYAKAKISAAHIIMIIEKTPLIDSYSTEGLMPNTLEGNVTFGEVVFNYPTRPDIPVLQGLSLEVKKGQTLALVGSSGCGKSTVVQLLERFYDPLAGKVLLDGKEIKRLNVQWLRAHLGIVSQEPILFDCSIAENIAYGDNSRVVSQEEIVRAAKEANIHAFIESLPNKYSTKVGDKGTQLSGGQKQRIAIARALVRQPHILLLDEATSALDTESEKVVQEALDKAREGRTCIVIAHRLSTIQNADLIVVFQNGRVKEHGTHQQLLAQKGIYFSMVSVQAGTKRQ
Put plainly: MDR1 LLC-PK1 permeability assay. Type of series: in vitro ADME. To be noted: pig, MDR1 transfected LLC-PK1 cells; for Papp at 2 h, 1 μM: permeability coefficient (Papp). On the procedure:
MDR1 transfected LLC-PK1 cells were cultured and plated according to manufacturer's recommendations with the exception that the passage media contained only 2% fetal bovine serum to extend passage time out to seven days.
Both positive and negative controls were used to assess functionality of P-gp efflux in the assay. Stock solutions for assay controls and the test article were prepared in DMSO for final test concentrations of 10 and 1 μM, respectively. Final organic concentration in the assay was 1%. All dosing solutions contained 10 μM lucifer yellow to monitor LLC-PK1 cell monolayer integrity.
For the apical to basolateral determination (A to B), 75 μL of the test article in transport buffer were added to the apical side of the individual transwells and 250 μL of basolateral media, without compound or lucifer yellow, were added to each well. For the basolateral to apical determination (B to A), 250 μL of test article in transport buffer were added to each well and 75 μL transport buffer, without compound or lucifer yellow, were added to each transwell. All tests were performed in triplicate, and each compound was tested for both apical to basolateral and basolateral to apical transport. The plates were incubated for 2 hours on a Lab-Line Instruments Titer Orbital Shaker (VWR, West Chester, Pa.) at 50 rpm and 37° C. with 5% CO2. All culture plates were removed from the incubator and 50 μL of media were removed from the apical and basolateral portion of each well and added to 150 μL of 1 μM labetalol in 2:1 acetonitrile (acetonitrile): H2O, v/v.
The plates were read using a Molecular Devices (Sunnyvale, Calif.) Gemini Fluorometer to evaluate the lucifer yellow concentrations at excitation/emission wavelengths of 425/535 nm. These values were accepted when found to be below 2% for apical to basolateral and 5% basolateral to apical flux across the MDR1-transfected LLC-PK1-transfected cell monolayers. The plates were sealed and the contents of each well analyzed by LC-MS/MS. The compound concentrations were determined from the ratio of the peak areas of the compound to the internal standard (labetalol) in comparison to the dosing solution.
The LC-MS/MS system was comprised of an HTS-PAL autosampler (Leap Technologies, Carrboro, N.C.), an HP1200 HPLC (Agilent, Palo Alto, Calif.), and a MDS Sciex 4000 Q Trap system (Applied Biosystems, Foster City, Calif.). […] The total run time, including re-equilibration, for a single injection was 1.2 minutes. Mass spectrometric detection of the analytes was accomplished using the ion spray positive mode. Analyte responses were measured by multiple reaction monitoring (MRM) of transitions unique to each compound (the protonated precursor ion and selected product ions for each test article and m/z 329 to m/z 162 for labetalol, the internal standard).
The permeability coefficient (Papp) is calculated from the following equation: […]
where Cd, V, t and C0 are the detected concentration (μM), the volume on the dosing side (mL), the incubation time (s) and the initial dosing concentration (μM), respectively. The calculations for Papp were made for each replicate and then averaged. In this assay, a compound is defined has having high permeability if the permeability is greater than 8×10^−6 cm/sec, a compound is defined has having medium permeability if the permeability is from 2×10^−6 cm/sec to 8×10^−6 cm/sec, and a compound is defined has having low permeability if the permeability is less than 2×10^−6 cm/sec.
An efflux ratio was calculated from the mean apical to basolateral (A-B) Papp data and basolateral to apical (B-A) Papp data:
Efflux ratio=Papp(B−A)/Papp(A−B)

[3] abbreviates: LLC-PK1, efflux ratio = Papp(B-A)/Papp(A-B), read-out: MDR1 Pe Ratio.
[4] abbreviates: LLC-PK1, Papp(B−A)/Papp(A−B), test article 1 μM, 2 hours, 37° C., read-out: Efflux ratio.

Molecules are shown by their SMILES. Like-named read-outs stand apart in the source and are kept apart here.

T1 sequence (P08581 1078-1345 limits assumed): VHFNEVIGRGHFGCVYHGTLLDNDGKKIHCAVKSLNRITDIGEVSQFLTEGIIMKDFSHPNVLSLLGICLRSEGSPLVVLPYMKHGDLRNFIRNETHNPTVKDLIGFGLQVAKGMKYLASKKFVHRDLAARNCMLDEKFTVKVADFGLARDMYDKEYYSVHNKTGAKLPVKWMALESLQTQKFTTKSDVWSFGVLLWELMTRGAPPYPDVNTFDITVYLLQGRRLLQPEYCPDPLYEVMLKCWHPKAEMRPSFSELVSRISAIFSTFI

Turning to `COc1cc2c(Oc3ccc(NC(=O)c4cn(C(C)C)cc(-c5ccc(F)cc5)c4=O)nc3)ccnc2cc1OCCCN1CCOCC1` [Example 56, 5-(4-fluorophenyl)-1-isopropyl-N-(5-((6-methoxy-7-(3-morpholinopropoxy)quinolin-4-yl)oxy)pyridin-2-yl)-4-oxo-1,4-dihydropyridine-3-carboxamide], the IC50 worked out at 3.9 nM in series [1] and 3 nM in series [2]. Further, the efflux ratio at 2 h, 1 μM at MDR1 (P-gp) (setting [3]) was found to be 20. The molecule further had a Papp at 2 h, 1 μM on MDR1 (P-gp) of under 1 ×10⁻⁶ cm/s.

As to `COc1cc2nccc(Oc3ccc(NC(=O)c4cn(CCN(C)C)cc(-c5ccc(F)cc5)c4=O)nc3)c2cc1OC` [Example 46], the IC50 in series [1] is 3 nM; in series [2] it was 1 nM. For the same molecule, the efflux ratio at 2 h, 1 μM on MDR1 (P-gp) (setting [3]) is 13. In addition, the Papp at 2 h, 1 μM at MDR1 (P-gp) was 2 ×10⁻⁶ cm/s.

Consider `COc1cc2nccc(Oc3ccc(NC(=O)c4cn(CC(=O)N(C)C)cc(-c5ccc(F)cc5)c4=O)nc3)c2cc1OC` [Example 23, N-(5-((6,7-dimethoxyquinolin-4yl)oxy)pyridin-2-yl)-1-(2-(dimethylamino)-2-oxoethyl)-5-(4-fluorophenyl)-4-oxo-1,4-dihydropyridine-3-carboxamide], for which the IC50 in series [1] was 2.8 nM; in series [2], 1 nM. Besides, the efflux ratio at 2 h, 1 μM at MDR1 (P-gp) (setting [3]) is 105. In addition, on MDR1 (P-gp), the Papp at 2 h, 1 μM worked out at 6 ×10⁻⁶ cm/s.

With `COc1cc2nccc(Oc3ccc(NC(=O)c4cn(C(C)C)c(C)c(-c5ccc(F)c(F)c5)c4=O)nc3)c2cc1OC` [Example 28, 5-(3,4-difluorophenyl)-N-(5-((6,7-dimethoxyquinolin-4yl)oxy)pyridin-2-yl)-1-isopropyl-6-methyl-4-oxo-1,4-dihydropyridine-3-carboxamide], the concentration for half-maximal inhibition (IC50) in series [1] was 2 nM; in series [2], 1 nM. For the same molecule, the efflux ratio at 2 h, 1 μM was 3.5 on MDR1 (P-gp) (setting [4]) and 2.8 at MDR1 (P-gp) (setting [3]). Besides, the apparent permeability (Papp) at 2 h, 1 μM at MDR1 (P-gp) is 15 ×10⁻⁶ cm/s.

In the case of `COc1cc2nccc(Oc3ccc(NC(=O)c4cn(CCC(C)C)cc(-c5ccc(F)cc5F)c4=O)nc3)c2cc1OC` [Example 36, 5-(2,4-difluorophenyl)-N-(5-((6,7-dimethoxyquinolin-4yl)oxy)pyridin-2-yl)-1-isopentyl-4-oxo-1,4-dihydropyridine-3-carboxamide], the IC50 in series [1] was determined as 2.4 nM; in series [2], 3 nM. Also, the efflux ratio at 2 h, 1 μM at MDR1 (P-gp) (setting [3]) turned out to be 4.3. On MDR1 (P-gp), this molecule showed a Papp at 2 h, 1 μM of 1 ×10⁻⁶ cm/s.

Regarding `COc1ccc(-c2cn(C(C)C)cc(C(=O)Nc3ccc(Oc4ccnc5cc(OC)c(OC)cc45)cn3)c2=O)cc1` [Example 30, N-(5-((6,7-dimethoxyquinolin-4yl)oxy)pyridin-2-yl)-1-isopropyl-5-(4-methoxyphenyl)-4-oxo-1,4-dihydropyridine-3-carboxamide], the IC50 in series [1] was found to be 39.7 nM; in series [2] it was 2 nM. In addition, the results for the efflux ratio at 2 h, 1 μM at MDR1 (P-gp) (setting [4]) and at MDR1 (P-gp) (setting [3]) were 3.5 and 3.1, respectively. On MDR1 (P-gp), this molecule displayed a Papp at 2 h, 1 μM of 7 ×10⁻⁶ cm/s.

Take `COc1ccc2nccc(Oc3ccc(NC(=O)c4cn(C)cc(-c5ccc(F)cc5)c4=O)nc3)c2c1` [Example 41, 5-(4-fluorophenyl)-N-(5-((6-methoxyquinolin-4yl)oxy)pyridin-2-yl)-1-methyl-4-oxo-1,4-dihydropyridine-3-carboxamide]: the IC50 came out at 117 nM in series [1] and 5 nM in series [2]. In addition, the efflux ratio at 2 h, 1 μM at MDR1 (P-gp) (setting [4]) came out at 3.5; on MDR1 (P-gp) (setting [3]), 2.5. In addition, the Papp at 2 h, 1 μM at MDR1 (P-gp) turned out to be 7 ×10⁻⁶ cm/s.

As for `COc1ccc2nccc(Oc3ccc(NC(=O)c4cn(C(C)C)c(C)c(-c5ccc(F)cc5)c4=O)nc3)c2c1` [Example 33, 5-(4-fluorophenyl)-1-isopropyl-N-(5-((6-methoxyquinolin-4-yl)oxy)pyridin-2-yl)-6-methyl-4-oxo-1,4-dihydropyridine-3-carboxamide], the IC50 in series [1] was determined as 3.9 nM; in series [2] it was 1 nM. Also, the efflux ratio at 2 h, 1 μM turned out to be 3.5 at MDR1 (P-gp) (setting [4]) and 2 on MDR1 (P-gp) (setting [3]). At MDR1 (P-gp), this molecule returned a Papp at 2 h, 1 μM of 10 ×10⁻⁶ cm/s.
